In patent publication US20080009418A1, “Selective Inhibitors” (Alchemia LTD., priority 2004, published 2008):

Columns and labels:
Conditions in all cases: compound at 10 μM
[1] = biological target: T1, Human melanin-concentrating hormone (MCH1) (Homo sapiens, UniProt Q99705); test: Radioligand binding, human melanin-concentrating hormone MCH1 membranes, FlashPlate, [125I]-S36057
T1 construct: purchased Perkin Elmer Biosignal
Procedure, shortened: (§1)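 Cloned human receptor membranes were coated onto FlashPlate wells and incubated with radioligand and compound (added from a 0.5 mM DMSO daughter plate) for 1 hour at room temperature in the dark. Scintillation counting gave percent inhibition, with DMSO defining total and reference ligand defining non-specific binding.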

[2] = biological target: T2, Mouse urotensin (mUR2) (Mus musculus, UniProt Q8VIH9); test: Radioligand binding, mouse urotensin mUR2 membranes, FlashPlate, [125I]-Urotensin II
T2 construct: purchased Perkin Elmer Biosignal
T2 sequence (Q8VIH9 1-385): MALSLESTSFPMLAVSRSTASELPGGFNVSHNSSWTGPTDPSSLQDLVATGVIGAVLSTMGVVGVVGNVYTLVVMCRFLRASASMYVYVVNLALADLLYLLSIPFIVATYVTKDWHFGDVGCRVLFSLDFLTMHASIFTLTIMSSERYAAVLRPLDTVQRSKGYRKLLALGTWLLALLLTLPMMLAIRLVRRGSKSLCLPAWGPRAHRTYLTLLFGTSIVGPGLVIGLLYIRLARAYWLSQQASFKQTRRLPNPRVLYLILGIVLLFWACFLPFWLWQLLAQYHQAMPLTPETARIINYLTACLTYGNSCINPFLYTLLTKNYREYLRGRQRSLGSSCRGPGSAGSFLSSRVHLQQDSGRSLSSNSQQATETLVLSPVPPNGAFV
Procedure, shortened: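 Cloned mouse urotensin (mUR2) receptor membranes from Perkin Elmer Biosignal were immobilized in FlashPlate microplates using a proprietary coating. Each well got 19.5 μl buffer, then 0.5 μl of DMSO, reference ligand, or compound. Adding 5 μl of [125I]-Urotensin II, diluted to 5× final concentration in binding buffer, started binding. Plates were sealed with TopSeal-A and incubated 1 hour at room temperature in the dark. Wells were counted for 30 seconds each on a TopCount after a 60-second delay, and percentage inhibition was calculated.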

[3] = biological target: T3, Human opioid (ORL1) (Homo sapiens, UniProt P41146); test: Radioligand binding, human opioid ORL1 membranes, FlashPlate, [125I]-Nociceptin
T3 construct: purchased Perkin Elmer Biosignal
Procedure, shortened: as §1

[4] = biological target: T4, Human Melanocortin (MC3) (Homo sapiens, UniProt P41968); test: Radioligand binding, human melanocortin MC3 membranes, FlashPlate, [125I]-NDP-αMSH
T4 construct: purchased Perkin Elmer Biosignal
Procedure, shortened: as §1

[5] = biological target: T5, Human Melanocortin (MC4) (Homo sapiens, UniProt P32245); test: Radioligand binding, human melanocortin MC4 membranes, FlashPlate, [125I]-NDP-αMSH
T5 construct: purchased Perkin Elmer Biosignal
Procedure, shortened: as §1

[6] = biological target: T6, Human κ-Opioid (KOP) (Homo sapiens, UniProt P41145); test: Radioligand binding, human κ-opioid (KOP) membranes, filtration, [3H]-Diprenorphine
T6 construct: purchased Perkin Elmer Biosignal
Procedure, shortened: (§2)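 Percent inhibition of radioligand binding measured on recombinant human membranes: NK1 with [125I]-Substance P, KOP with [3H]-Diprenorphine. Incubation 1 h at room temperature, then harvest onto 0.3% PEI-soaked filters, cold Tris-HCl pH 7.4 washes and scintillation counting; non-specific binding from reference ligand wells.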

[7] = biological target: T7, Human melanocortin (MC5) (Homo sapiens, UniProt P33032); test: Radioligand binding, human melanocortin MC5 membranes, FlashPlate, [125I]-NDP-αMSH
T7 construct: purchased Perkin Elmer Biosignal
Procedure, shortened: as §1

[8] = biological target: T8, Human neurokinin (NK1) (Homo sapiens, UniProt P25103); test: Radioligand binding, human neurokinin NK1 membranes, filtration, [125I]-Substance P
T8 construct: purchased Perkin Elmer Biosignal
Procedure, shortened: as §2

[9] = biological target: T9, Human δ-opioid (DOP) (Homo sapiens, UniProt P41143); test: Radioligand binding, human δ-opioid (DOP) membranes, FlashPlate, [3H]-Bremazocine
T9 construct: purchased Perkin Elmer Biosignal
Procedure, shortened: as §1

[10] = biological target: T10, Human μ-opioid (MOP) (Homo sapiens, UniProt P35372); test: Radioligand binding, human μ-opioid (MOP) membranes, FlashPlate, [3H]-Naloxone
T10 construct: purchased Perkin Elmer Biosignal
Procedure, shortened: as §1

[11] = biological target: T11, Human neuropeptide Y (NPY-Y1) (Homo sapiens, UniProt P25929); test: Radioligand binding, human neuropeptide Y NPY-Y1 membranes, FlashPlate, [125I]-PYY
T11 construct: purchased Perkin Elmer Biosignal
T11 sequence (P25929 1-384): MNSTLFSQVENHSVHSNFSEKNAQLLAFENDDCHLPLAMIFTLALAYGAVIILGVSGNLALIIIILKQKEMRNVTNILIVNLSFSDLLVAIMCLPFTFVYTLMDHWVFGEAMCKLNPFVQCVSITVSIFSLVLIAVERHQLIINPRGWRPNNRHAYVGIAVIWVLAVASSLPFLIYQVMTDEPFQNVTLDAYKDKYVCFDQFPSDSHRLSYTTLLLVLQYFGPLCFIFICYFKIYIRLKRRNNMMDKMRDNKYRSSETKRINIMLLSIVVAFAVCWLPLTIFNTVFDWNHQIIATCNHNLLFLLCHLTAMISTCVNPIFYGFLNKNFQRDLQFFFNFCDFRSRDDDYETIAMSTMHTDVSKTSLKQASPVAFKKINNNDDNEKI
Procedure, shortened: as §1

T1 sequence (Q99705 whole entry): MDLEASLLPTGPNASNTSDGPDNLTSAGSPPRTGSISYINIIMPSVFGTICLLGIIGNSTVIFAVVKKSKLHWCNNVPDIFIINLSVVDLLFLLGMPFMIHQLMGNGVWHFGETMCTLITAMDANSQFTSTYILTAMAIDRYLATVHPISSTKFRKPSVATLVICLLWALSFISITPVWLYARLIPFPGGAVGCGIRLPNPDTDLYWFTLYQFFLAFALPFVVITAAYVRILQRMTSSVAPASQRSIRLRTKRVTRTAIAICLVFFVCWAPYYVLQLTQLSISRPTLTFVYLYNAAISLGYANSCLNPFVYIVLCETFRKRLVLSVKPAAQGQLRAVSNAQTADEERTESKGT
T3 sequence (P41146 whole entry): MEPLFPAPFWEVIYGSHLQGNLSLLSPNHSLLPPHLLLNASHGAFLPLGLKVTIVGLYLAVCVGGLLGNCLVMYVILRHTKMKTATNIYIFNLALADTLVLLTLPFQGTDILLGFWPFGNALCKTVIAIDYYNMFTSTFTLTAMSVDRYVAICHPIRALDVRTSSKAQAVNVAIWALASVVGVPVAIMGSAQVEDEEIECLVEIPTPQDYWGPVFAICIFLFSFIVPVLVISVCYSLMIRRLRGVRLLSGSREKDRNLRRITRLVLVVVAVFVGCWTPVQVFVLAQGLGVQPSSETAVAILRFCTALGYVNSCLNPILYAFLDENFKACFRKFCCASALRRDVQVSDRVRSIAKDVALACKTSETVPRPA
T9 sequence (P41143 whole entry): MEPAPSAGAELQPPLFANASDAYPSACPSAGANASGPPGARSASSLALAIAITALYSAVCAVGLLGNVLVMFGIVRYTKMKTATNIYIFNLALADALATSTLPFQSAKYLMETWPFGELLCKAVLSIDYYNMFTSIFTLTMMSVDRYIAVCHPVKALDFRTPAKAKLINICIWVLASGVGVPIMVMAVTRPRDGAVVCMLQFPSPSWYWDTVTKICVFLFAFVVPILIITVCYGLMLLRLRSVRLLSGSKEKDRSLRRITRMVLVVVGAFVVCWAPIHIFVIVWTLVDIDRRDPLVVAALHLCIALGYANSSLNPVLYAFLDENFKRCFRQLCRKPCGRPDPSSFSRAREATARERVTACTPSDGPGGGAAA
T10 sequence (P35372 whole entry): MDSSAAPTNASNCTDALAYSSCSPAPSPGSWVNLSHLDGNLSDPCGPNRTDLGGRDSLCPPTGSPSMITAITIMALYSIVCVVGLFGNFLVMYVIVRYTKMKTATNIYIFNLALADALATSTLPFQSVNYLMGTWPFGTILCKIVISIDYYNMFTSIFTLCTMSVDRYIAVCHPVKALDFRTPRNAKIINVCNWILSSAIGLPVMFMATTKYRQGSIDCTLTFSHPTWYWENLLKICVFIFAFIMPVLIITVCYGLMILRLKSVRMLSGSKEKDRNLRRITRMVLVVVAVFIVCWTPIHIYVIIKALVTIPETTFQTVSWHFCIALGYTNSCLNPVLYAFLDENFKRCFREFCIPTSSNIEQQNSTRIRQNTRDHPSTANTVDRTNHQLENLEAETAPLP
T5 sequence (P32245 whole entry): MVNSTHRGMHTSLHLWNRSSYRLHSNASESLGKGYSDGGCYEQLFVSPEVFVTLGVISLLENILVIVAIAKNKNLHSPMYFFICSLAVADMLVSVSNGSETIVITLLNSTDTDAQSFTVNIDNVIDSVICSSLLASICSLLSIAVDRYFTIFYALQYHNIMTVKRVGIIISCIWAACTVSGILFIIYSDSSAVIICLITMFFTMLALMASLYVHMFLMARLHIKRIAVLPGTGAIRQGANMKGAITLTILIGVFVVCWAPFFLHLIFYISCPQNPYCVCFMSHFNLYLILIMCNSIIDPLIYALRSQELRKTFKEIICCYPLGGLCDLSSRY
T4 sequence (P41968 whole entry): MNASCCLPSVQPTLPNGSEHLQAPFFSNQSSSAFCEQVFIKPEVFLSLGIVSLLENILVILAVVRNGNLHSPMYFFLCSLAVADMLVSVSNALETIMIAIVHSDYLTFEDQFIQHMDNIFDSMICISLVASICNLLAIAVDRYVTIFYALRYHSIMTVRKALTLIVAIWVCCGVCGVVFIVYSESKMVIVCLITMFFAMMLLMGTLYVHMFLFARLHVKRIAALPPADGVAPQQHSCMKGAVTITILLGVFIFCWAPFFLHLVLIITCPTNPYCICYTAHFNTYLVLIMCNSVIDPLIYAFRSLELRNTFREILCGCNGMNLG
T7 sequence (P33032 whole entry): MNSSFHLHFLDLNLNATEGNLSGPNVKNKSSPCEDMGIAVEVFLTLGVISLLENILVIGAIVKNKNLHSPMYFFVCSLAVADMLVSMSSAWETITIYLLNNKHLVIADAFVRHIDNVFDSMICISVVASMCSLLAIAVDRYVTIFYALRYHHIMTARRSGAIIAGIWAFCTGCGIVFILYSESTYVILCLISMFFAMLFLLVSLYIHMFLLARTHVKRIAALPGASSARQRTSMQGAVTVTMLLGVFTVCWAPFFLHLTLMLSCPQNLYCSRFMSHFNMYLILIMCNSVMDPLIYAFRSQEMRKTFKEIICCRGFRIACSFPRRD
T6 sequence (P41145 whole entry): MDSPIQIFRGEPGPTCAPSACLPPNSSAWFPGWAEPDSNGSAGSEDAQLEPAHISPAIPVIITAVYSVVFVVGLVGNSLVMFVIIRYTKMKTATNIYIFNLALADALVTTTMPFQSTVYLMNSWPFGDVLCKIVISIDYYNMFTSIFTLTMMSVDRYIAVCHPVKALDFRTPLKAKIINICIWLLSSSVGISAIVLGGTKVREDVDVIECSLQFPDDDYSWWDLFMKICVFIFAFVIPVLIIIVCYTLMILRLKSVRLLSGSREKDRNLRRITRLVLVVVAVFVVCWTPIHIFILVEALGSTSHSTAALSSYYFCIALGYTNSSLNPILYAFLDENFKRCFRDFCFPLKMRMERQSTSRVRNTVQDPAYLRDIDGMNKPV
T8 sequence (P25103 whole entry): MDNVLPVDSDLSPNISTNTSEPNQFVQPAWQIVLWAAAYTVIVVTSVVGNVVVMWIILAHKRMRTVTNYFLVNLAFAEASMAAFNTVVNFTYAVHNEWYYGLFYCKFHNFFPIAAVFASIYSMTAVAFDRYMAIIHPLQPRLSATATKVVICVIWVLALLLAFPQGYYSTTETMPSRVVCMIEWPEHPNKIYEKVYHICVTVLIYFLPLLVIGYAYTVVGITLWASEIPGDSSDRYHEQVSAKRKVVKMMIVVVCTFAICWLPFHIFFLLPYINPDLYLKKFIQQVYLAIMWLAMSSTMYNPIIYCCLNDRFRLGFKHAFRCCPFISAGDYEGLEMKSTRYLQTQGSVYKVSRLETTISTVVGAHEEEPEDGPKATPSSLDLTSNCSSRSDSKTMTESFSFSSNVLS

With COCC1OC(OCc2ccc(Cl)cc2)C(NC(=O)CCCN)C(OCc2ccc(Cl)cc2)C1O (stereo not shown) [compound 203] the “A6: inhibition of radioligand binding” value ([1]; [125I]-S36057, FlashPlate) was “− (“−” indicates less than 50% inhibition at 10 μM)”, the “A11: inhibition of radioligand binding” value ([2]; [125I]-Urotensin II, FlashPlate) was “− (“−” indicates less than 50% inhibition at 10 μM)” and the “A10: inhibition of radioligand binding” value ([3]; [125I]-Nociceptin, FlashPlate) was “− (“−” indicates less than 50% inhibition at 10 μM)”. For the same molecule, the “A3: inhibition of radioligand binding” value ([4]; [125I]-NDP-αMSH, FlashPlate) was “− (“−” indicates less than 50% inhibition at 10 μM)”, the “A4: inhibition of radioligand binding” value ([5]; [125I]-NDP-αMSH, FlashPlate) was “− (“−” indicates less than 50% inhibition at 10 μM)” and the “A2: inhibition of radioligand binding” value ([6]; [3H]-Diprenorphine, filtration) was “− (“−” indicates less than 50% inhibition at 10 μM)”. The “A5: inhibition of radioligand binding” value ([7]; [125I]-NDP-αMSH, FlashPlate) was “+ (“+” indicates greater than 50% inhibition at 10 μM)”, the “A8: inhibition of radioligand binding” value ([8]; [125I]-Substance P, filtration) was “+ (“+” indicates greater than 50% inhibition at 10 μM)” and the “A1: inhibition of radioligand binding” value ([9]; [3H]-Bremazocine, FlashPlate) was “− (“−” indicates less than 50% inhibition at 10 μM)”. For the same molecule, the “A7: inhibition of radioligand binding” value ([10]; [3H]-Naloxone, FlashPlate) was “− (“−” indicates less than 50% inhibition at 10 μM)” and the “A9: inhibition of radioligand binding” value ([11]; [125I]-PYY, FlashPlate) was “− (“−” indicates less than 50% inhibition at 10 μM)”.
For CO[C@H]1[C@H](O)[C@@H](COCc2ccc3ccccc3c2)OC(OCCNC(=N)N)[C@@H]1NC(=O)c1ccccc1 (stereo partly shown) [compound 124], the “A6 radioligand binding, percentage inhibition” value ([1]; [125I]-S36057) was “− (“−” indicates less than 50% inhibition at 10 μM)”, the “A11 radioligand binding, percentage inhibition” value ([2]; [125I]-Urotensin II) was “− (“−” indicates less than 50% inhibition at 10 μM)” and the “A10 radioligand binding, percentage inhibition” value ([3]; [125I]-Nociceptin) was “− (“−” indicates less than 50% inhibition at 10 μM)”. The “A3 radioligand binding, percentage inhibition” value ([4]; [125I]-NDP-αMSH) was “− (“−” indicates less than 50% inhibition at 10 μM)”, the “A4 radioligand binding, percentage inhibition” value ([5]; [125I]-NDP-αMSH) was “− (“−” indicates less than 50% inhibition at 10 μM)” and the “A2 radioligand binding, percentage inhibition” value ([6]; [3H]-Diprenorphine) was “− (“−” indicates less than 50% inhibition at 10 μM)”. The “A5 radioligand binding, percentage inhibition” value ([7]; [125I]-NDP-αMSH) was “+ (“+” indicates greater than 50% inhibition at 10 μM)”, the “A8 radioligand binding, percentage inhibition” value ([8]; [125I]-Substance P) was “+ (“+” indicates greater than 50% inhibition at 10 μM)” and the “A1 radioligand binding, percentage inhibition” value ([9]; [3H]-Bremazocine) was “− (“−” indicates less than 50% inhibition at 10 μM)”. For the same molecule, the “A7 radioligand binding, percentage inhibition” value ([10]; [3H]-Naloxone) was “− (“−” indicates less than 50% inhibition at 10 μM)” and the “A9 radioligand binding, percentage inhibition” value ([11]; [125I]-PYY) was “− (“−” indicates less than 50% inhibition at 10 μM)”.
COC[C@H]1OC(OCc2ccccc2)[C@H](NC(=O)CNC(=N)N)[C@@H](OCc2ccc(-c3ccccc3)cc2)[C@@H]1O (stereo partly shown) [compound 23] was tested, and the “A6 radioligand binding inhibition” value ([1]; human MCH1 membranes) was “+ (“+” indicates greater than 50% inhibition at 10 μM)”, the “A11 radioligand binding inhibition” value ([2]; mouse urotensin mUR2 membranes) was “− (“−” indicates less than 50% inhibition at 10 μM)” and the “A10 radioligand binding inhibition” value ([3]; human ORL1 membranes) was “− (“−” indicates less than 50% inhibition at 10 μM)”. The “A3 radioligand binding inhibition” value ([4]; human melanocortin MC3 membranes) was “− (“−” indicates less than 50% inhibition at 10 μM)”, the “A4 radioligand binding inhibition” value ([5]; human melanocortin MC4 membranes) was “− (“−” indicates less than 50% inhibition at 10 μM)” and the “A2 radioligand binding inhibition” value ([6]; human κ-opioid (KOP) membranes) was “− (“−” indicates less than 50% inhibition at 10 μM)”. For the same molecule, the “A5 radioligand binding inhibition” value ([7]; human melanocortin MC5 membranes) was “+ (“+” indicates greater than 50% inhibition at 10 μM)”, the “A8 radioligand binding inhibition” value ([8]; human neurokinin NK1 membranes) was “+ (“+” indicates greater than 50% inhibition at 10 μM)” and the “A1 radioligand binding inhibition” value ([9]; human δ-opioid (DOP) membranes) was “− (“−” indicates less than 50% inhibition at 10 μM)”. The “A7 radioligand binding inhibition” value ([10]; human μ-opioid (MOP) membranes) was “− (“−” indicates less than 50% inhibition at 10 μM)” and the “A9 radioligand binding inhibition” value ([11]; human NPY-Y1 membranes) was “− (“−” indicates less than 50% inhibition at 10 μM)”.
With NCCC(=O)N[C@H]1C(OCc2ccc3ccccc3c2)O[C@H](COCc2ccc3ccccc3c2)[C@@H](O)[C@@H]1OCc1ccc(Cl)cc1 (stereo partly shown) [compound 436] the “A6: inhibition of radioligand binding” value ([1]; [125I]-S36057, human MCH1 membranes) was “+ (“+” indicates greater than 50% inhibition at 10 μM)”, the “A11: inhibition of radioligand binding” value ([2]; [125I]-Urotensin II, mouse mUR2 membranes) was “− (“−” indicates less than 50% inhibition at 10 μM)” and the “A10: inhibition of radioligand binding” value ([3]; [125I]-Nociceptin, human ORL1 membranes) was “− (“−” indicates less than 50% inhibition at 10 μM)”. For the same molecule, the “A3: inhibition of radioligand binding” value ([4]; [125I]-NDP-αMSH, human MC3 membranes) was “+ (“+” indicates greater than 50% inhibition at 10 μM)”, the “A4: inhibition of radioligand binding” value ([5]; [125I]-NDP-αMSH, human MC4 membranes) was “+ (“+” indicates greater than 50% inhibition at 10 μM)” and the “A2: inhibition of radioligand binding” value ([6]; [3H]-Diprenorphine, human KOP membranes) was “− (“−” indicates less than 50% inhibition at 10 μM)”. The “A5: inhibition of radioligand binding” value ([7]; [125I]-NDP-αMSH, human MC5 membranes) was “+ (“+” indicates greater than 50% inhibition at 10 μM)”, the “A8: inhibition of radioligand binding” value ([8]; [125I]-Substance P, human NK1 membranes) was “+ (“+” indicates greater than 50% inhibition at 10 μM)” and the “A1: inhibition of radioligand binding” value ([9]; [3H]-Bremazocine, human DOP membranes) was “− (“−” indicates less than 50% inhibition at 10 μM)”. For the same molecule, the “A7: inhibition of radioligand binding” value ([10]; [3H]-Naloxone, human MOP membranes) was “− (“−” indicates less than 50% inhibition at 10 μM)” and the “A9: inhibition of radioligand binding” value ([11]; [125I]-PYY, human NPY-Y1 membranes) was “− (“−” indicates less than 50% inhibition at 10 μM)”.
With CSC1OC(COCc2ccc(Cl)cc2)C(O)C(OCc2ccc3ccccc3c2)C1NC(=O)CCCNC(=N)N (stereo not shown) [compound 311] the “A6: inhibition of radioligand binding, human melanin-concentrating hormone (MCH1)” value ([1]; [125I]-S36057) was “− (“−” indicates less than 50% inhibition at 10 μM)”, the “A11: inhibition of radioligand binding, mouse urotensin (mUR2)” value ([2]; [125I]-Urotensin II) was “− (“−” indicates less than 50% inhibition at 10 μM)” and the “A10: inhibition of radioligand binding, human opioid (ORL1)” value ([3]; [125I]-Nociceptin) was “− (“−” indicates less than 50% inhibition at 10 μM)”. For the same molecule, the “A3: inhibition of radioligand binding, human melanocortin (MC3)” value ([4]; [125I]-NDP-αMSH) was “− (“−” indicates less than 50% inhibition at 10 μM)”, the “A4: inhibition of radioligand binding, human melanocortin (MC4)” value ([5]; [125I]-NDP-αMSH) was “+ (“+” indicates greater than 50% inhibition at 10 μM)” and the “A2: inhibition of radioligand binding, human κ-opioid (KOP)” value ([6]; [3H]-Diprenorphine) was “− (“−” indicates less than 50% inhibition at 10 μM)”. For the same molecule, the “A5: inhibition of radioligand binding, human melanocortin (MC5)” value ([7]; [125I]-NDP-αMSH) was “+ (“+” indicates greater than 50% inhibition at 10 μM)”, the “A8: inhibition of radioligand binding, human neurokinin (NK1)” value ([8]; [125I]-Substance P) was “+ (“+” indicates greater than 50% inhibition at 10 μM)” and the “A1: inhibition of radioligand binding, human δ-opioid (DOP)” value ([9]; [3H]-Bremazocine) was “− (“−” indicates less than 50% inhibition at 10 μM)”. The “A7: inhibition of radioligand binding, human μ-opioid (MOP)” value ([10]; [3H]-Naloxone) was “− (“−” indicates less than 50% inhibition at 10 μM)” and the “A9: inhibition of radioligand binding, human neuropeptide Y (NPY-Y1)” value ([11]; [125I]-PYY) was “− (“−” indicates less than 50% inhibition at 10 μM)”.
